From PubChem BioAssay (NCI)
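A five-concentration, 48-hour dose response in 96-well plates underlies each endpoint, interpolated linearly between surrounding concentrations. TGI: total growth inhibition.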

Columns and labels:
Assay in all cases: NCI anticancer screen, dose series, 48 h
786-0 renal = system: 786-0 renal
A498 renal = system: A498 renal
A549 NSCLC = system: A549 NSCLC
ACHN renal = system: ACHN renal
BT-549 breast = system: BT-549 breast
CAKI-1 renal = system: CAKI-1 renal
CCRF-CEM leukemia = system: CCRF-CEM leukemia
COLO 205 colon = system: COLO 205 colon
DU-145 prostate = system: DU-145 prostate
EKVX NSCLC = system: EKVX NSCLC
HCC-2998 colon = system: HCC-2998 colon
HCT-116 colon = system: HCT-116 colon
HCT-15 colon = system: HCT-15 colon
HL-60(TB) leukemia = system: HL-60(TB) leukemia
HOP-62 NSCLC = system: HOP-62 NSCLC
HOP-92 NSCLC = system: HOP-92 NSCLC
HS 578T breast = system: HS 578T breast
HT29 colon = system: HT29 colon
K-562 leukemia = system: K-562 leukemia
KM12 colon = system: KM12 colon
LOX IMVI melanoma = system: LOX IMVI melanoma
M14 melanoma = system: M14 melanoma
MALME-3M melanoma = system: MALME-3M melanoma
MCF7 breast = system: MCF7 breast
MDA-MB-231 breast = system: MDA-MB-231 breast
MDA-MB-435 = system: MDA-MB-435
MDA-N = system: MDA-N
MOLT-4 leukemia = system: MOLT-4 leukemia
NCI-H226 lung = system: NCI-H226 lung
NCI-H23 lung = system: NCI-H23 lung
NCI-H460 lung = system: NCI-H460 lung
NCI-H522 lung = system: NCI-H522 lung
NCI/ADR-RES ovarian = system: NCI/ADR-RES ovarian
OVCAR-3 ovarian = system: OVCAR-3 ovarian
OVCAR-4 ovarian = system: OVCAR-4 ovarian
OVCAR-5 ovarian = system: OVCAR-5 ovarian
OVCAR-8 ovarian = system: OVCAR-8 ovarian
PC-3 prostate = system: PC-3 prostate
RXF 393 renal = system: RXF 393 renal
SF-268 CNS = system: SF-268 CNS
SF-295 CNS = system: SF-295 CNS
SF-539 CNS = system: SF-539 CNS
SK-MEL-2 melanoma = system: SK-MEL-2 melanoma
SK-MEL-28 melanoma = system: SK-MEL-28 melanoma
SK-MEL-5 melanoma = system: SK-MEL-5 melanoma
SK-OV-3 ovarian = system: SK-OV-3 ovarian
SN12C renal = system: SN12C renal
SNB-19 CNS = system: SNB-19 CNS
SNB-75 CNS = system: SNB-75 CNS
SR leukemia = system: SR leukemia
SW-620 colon = system: SW-620 colon
T-47D breast = system: T-47D breast
TK-10 renal = system: TK-10 renal
U251 CNS = system: U251 CNS
UACC-257 melanoma = system: UACC-257 melanoma
UACC-62 melanoma = system: UACC-62 melanoma
UO-31 renal = system: UO-31 renal
IGROV1 ovarian = system: IGROV1 ovarian

CC1(C)CC(=O)c2c(nc3c4c([nH]c(-c5ccc([N+](=O)[O-])cc5)c24)CC(C)(C)C3)C1
TGI (786-0 renal): > 100 µM
TGI (A498 renal): 44.6 µM
TGI (A549 NSCLC): > 100 µM
TGI (ACHN renal): > 100 µM
TGI (BT-549 breast): > 100 µM
TGI (CAKI-1 renal): > 100 µM
TGI (CCRF-CEM leukemia): > 100 µM
TGI (COLO 205 colon): 59 µM
TGI (DU-145 prostate): > 100 µM
TGI (EKVX NSCLC): > 100 µM
TGI (HCC-2998 colon): > 100 µM
TGI (HCT-116 colon): > 100 µM
TGI (HCT-15 colon): > 100 µM
TGI (HL-60(TB) leukemia): > 100 µM
TGI (HOP-62 NSCLC): > 100 µM
TGI (HOP-92 NSCLC): > 100 µM
TGI (HS 578T breast): > 100 µM
TGI (HT29 colon): > 100 µM
TGI (K-562 leukemia): > 100 µM
TGI (KM12 colon): > 100 µM
TGI (LOX IMVI melanoma): > 100 µM
TGI (M14 melanoma): > 100 µM
TGI (MALME-3M melanoma): > 100 µM
TGI (MCF7 breast): > 100 µM
TGI (MDA-MB-231 breast): > 100 µM
TGI (MDA-MB-435): > 100 µM
TGI (MDA-N): > 100 µM
TGI (MOLT-4 leukemia): > 100 µM
TGI (NCI-H226 lung): > 100 µM
TGI (NCI-H23 lung): > 100 µM
TGI (NCI-H460 lung): > 100 µM
TGI (NCI-H522 lung): > 100 µM
TGI (NCI/ADR-RES ovarian): > 100 µM
TGI (OVCAR-3 ovarian): > 100 µM
TGI (OVCAR-4 ovarian): > 100 µM
TGI (OVCAR-5 ovarian): > 100 µM
TGI (OVCAR-8 ovarian): > 100 µM
TGI (PC-3 prostate): > 100 µM
TGI (RXF 393 renal): > 100 µM
TGI (SF-268 CNS): > 100 µM
TGI (SF-295 CNS): > 100 µM
TGI (SF-539 CNS): > 100 µM
TGI (SK-MEL-2 melanoma): > 100 µM
TGI (SK-MEL-28 melanoma): > 100 µM
TGI (SK-MEL-5 melanoma): > 100 µM
TGI (SK-OV-3 ovarian): > 100 µM
TGI (SN12C renal): > 100 µM
TGI (SNB-19 CNS): > 100 µM
TGI (SNB-75 CNS): > 100 µM
TGI (SR leukemia): 47.9 µM
TGI (SW-620 colon): > 100 µM
TGI (T-47D breast): > 100 µM
TGI (TK-10 renal): > 100 µM
TGI (U251 CNS): > 100 µM
TGI (UACC-257 melanoma): > 100 µM
TGI (UACC-62 melanoma): 93.4 µM
TGI (UO-31 renal): > 100 µM

CC1(C)COP(=S)(c2ccccn2)O[C@@H]1c1ccccc1 (some centres not stated)
TGI (786-0 renal): > 100 µM
TGI (A498 renal): > 100 µM
TGI (A549 NSCLC): > 100 µM
TGI (ACHN renal): > 100 µM
TGI (BT-549 breast): > 100 µM
TGI (CAKI-1 renal): > 100 µM
TGI (CCRF-CEM leukemia): > 100 µM
TGI (COLO 205 colon): > 100 µM
TGI (DU-145 prostate): > 100 µM
TGI (EKVX NSCLC): > 100 µM
TGI (HCC-2998 colon): > 100 µM
TGI (HCT-116 colon): > 100 µM
TGI (HCT-15 colon): > 100 µM
TGI (HL-60(TB) leukemia): > 100 µM
TGI (HOP-62 NSCLC): > 100 µM
TGI (HOP-92 NSCLC): > 100 µM
TGI (HS 578T breast): > 100 µM
TGI (HT29 colon): > 100 µM
TGI (IGROV1 ovarian): > 100 µM
TGI (K-562 leukemia): > 100 µM
TGI (KM12 colon): > 100 µM
TGI (LOX IMVI melanoma): > 100 µM
TGI (M14 melanoma): > 100 µM
TGI (MALME-3M melanoma): > 100 µM
TGI (MCF7 breast): > 100 µM
TGI (MDA-MB-231 breast): > 100 µM
TGI (MDA-MB-435): > 100 µM
TGI (MDA-N): > 100 µM
TGI (MOLT-4 leukemia): > 100 µM
TGI (NCI-H226 lung): > 100 µM
TGI (NCI-H23 lung): > 100 µM
TGI (NCI-H460 lung): > 100 µM
TGI (NCI-H522 lung): > 100 µM
TGI (NCI/ADR-RES ovarian): > 100 µM
TGI (OVCAR-4 ovarian): > 100 µM
TGI (OVCAR-5 ovarian): > 100 µM
TGI (OVCAR-8 ovarian): > 100 µM
TGI (PC-3 prostate): > 100 µM
TGI (RXF 393 renal): > 100 µM
TGI (SF-268 CNS): > 100 µM
TGI (SF-295 CNS): > 100 µM
TGI (SK-MEL-28 melanoma): > 100 µM
TGI (SK-MEL-5 melanoma): 91.1 µM
TGI (SK-OV-3 ovarian): > 100 µM
TGI (SN12C renal): > 100 µM
TGI (SNB-19 CNS): > 100 µM
TGI (SNB-75 CNS): > 100 µM
TGI (SR leukemia): > 100 µM
TGI (SW-620 colon): > 100 µM
TGI (T-47D breast): > 100 µM
TGI (TK-10 renal): > 100 µM
TGI (U251 CNS): > 100 µM
TGI (UACC-257 melanoma): > 100 µM
TGI (UACC-62 melanoma): > 100 µM
TGI (UO-31 renal): > 100 µM
